Experimental findings from PMC6089346 (Journal of the American Chemical Society, 2015) are described below.

For assay [1], the target named is human PARG (Homo sapiens, UniProt Q86W56, E755N). The experiment in a line: fluorescence polarization direct binding. (Fluorescence polarisation rises when a labelled molecule tumbles more slowly, as on binding a larger partner.)
Assay [2] has as its target human PARG (Homo sapiens, UniProt Q86W56, E756N). The experiment in a line: fluorescence polarization direct binding.

human PARG (Homo sapiens, UniProt Q86W56, E755N), sequence (Q86W56 whole entry E755N): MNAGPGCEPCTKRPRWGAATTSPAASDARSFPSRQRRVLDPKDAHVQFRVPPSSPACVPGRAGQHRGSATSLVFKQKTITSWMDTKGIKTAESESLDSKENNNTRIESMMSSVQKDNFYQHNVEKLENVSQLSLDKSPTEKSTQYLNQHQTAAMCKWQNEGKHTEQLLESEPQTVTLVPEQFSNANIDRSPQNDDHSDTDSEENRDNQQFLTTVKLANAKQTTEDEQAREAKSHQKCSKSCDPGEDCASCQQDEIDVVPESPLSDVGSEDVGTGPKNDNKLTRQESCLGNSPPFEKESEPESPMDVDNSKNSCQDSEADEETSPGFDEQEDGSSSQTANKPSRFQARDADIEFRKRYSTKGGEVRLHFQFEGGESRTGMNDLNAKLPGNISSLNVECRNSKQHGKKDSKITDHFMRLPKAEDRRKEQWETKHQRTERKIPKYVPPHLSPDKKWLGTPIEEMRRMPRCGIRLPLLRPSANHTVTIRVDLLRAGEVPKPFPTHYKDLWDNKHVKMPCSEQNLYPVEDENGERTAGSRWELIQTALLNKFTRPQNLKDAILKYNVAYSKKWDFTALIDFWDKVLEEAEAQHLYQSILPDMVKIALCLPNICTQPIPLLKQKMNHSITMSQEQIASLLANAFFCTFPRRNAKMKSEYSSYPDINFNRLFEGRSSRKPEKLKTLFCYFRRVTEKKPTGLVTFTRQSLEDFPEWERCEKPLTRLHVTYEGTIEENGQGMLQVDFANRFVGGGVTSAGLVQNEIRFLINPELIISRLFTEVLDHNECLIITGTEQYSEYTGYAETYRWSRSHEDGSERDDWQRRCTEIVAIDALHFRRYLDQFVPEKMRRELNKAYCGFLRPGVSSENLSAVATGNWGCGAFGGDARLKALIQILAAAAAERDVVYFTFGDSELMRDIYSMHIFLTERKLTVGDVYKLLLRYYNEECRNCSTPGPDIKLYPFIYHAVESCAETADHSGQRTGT
human PARG (Homo sapiens, UniProt Q86W56, E756N), sequence (Q86W56 whole entry E756N): as the sequence (Q86W56 whole entry E755N) above, with N755E, E756N counted along it

Regarding Cy3 ADP-ribose dimer [compound 22], the Kd – broadly, a measure of binding affinity in units of concentration – on human PARG [1] amounted to 208 ± 14 nM; at human PARG [2] it was 83 ± 7 nM.
